Measured values reported in ChEMBL document CHEMBL5096184, “Structure activity relationship in β-carboline derived anti-malarial agents” (Eur J Med Chem, 2021).

Assays:
Type in all cases: functional, organism-based
Plasmodium falciparum [1] = experiment: Antimalarial activity against Plasmodium falciparum K1
Plasmodium falciparum [2] = experiment: Antimalarial activity against multi drug resistant Plasmodium falciparum W2
Plasmodium falciparum [3] = experiment: Antimalarial activity against Plasmodium falciparum W2 (MRA-157) incubated for 72 hrs
Plasmodium falciparum [4] = experiment: Antimalarial activity against chloroquine-resistant Plasmodium falciparum
Plasmodium berghei = experiment: Antiplasmodial activity against Plasmodium berghei assessed as reduction in parasitemia
Plasmodium falciparum [5] = experiment: Antimalarial activity against chloroquine sensitive Plasmodium falciparum 3D7
Plasmodium falciparum [6] = experiment: Antiplasmodial activity against chloroquine sensitive Plasmodium falciparum FCA 20/Ghana
Plasmodium falciparum [7] = experiment: Antiplasmodial activity against chloroquine sensitive Plasmodium falciparum W2/Indochina
Plasmodium falciparum [8] = experiment: Antimalarial activity against chloroquine sensitive Plasmodium falciparum K1
Plasmodium falciparum [9] = experiment: Antiplasmodial activity against chloroquine sensitive Plasmodium falciparum FCB1-R/Colombia
[10] = Plasmodium falciparum, FCA 20/Ghana
[11] = Plasmodium falciparum, W2/Indochina

OCCNc1nccc2c1[nH]c1ccccc12 was tested, and the IC50 (Plasmodium falciparum [1]) was 2.4 µM.
In the case of COc1ccc(C2NCCc3c2[nH]c2ccccc32)cc1 (stereo unspecified), the IC50 (Plasmodium falciparum [2]) is reported as 0.7 µM.
In the case of c1ccc(C2NCCc3c2[nH]c2ccccc32)cc1 (stereo unspecified), the IC50 (Plasmodium falciparum [2]) is reported as 8.1 µM.
COc1cccc(C2NCCc3c2[nH]c2ccccc32)c1 (stereo unspecified) was tested, and the IC50 (Plasmodium falciparum [3]) was 25.1 µM.
Work on c1ccc2c(-c3nccc4c3[nH]c3ccccc34)c[nH]c2c1 yielded an IC50 (Plasmodium falciparum [4]) of 14.4 µM.
O=[N+]([O-])c1cccc(C2NCCc3c2[nH]c2ccccc32)c1 (stereo unspecified) showed an IC50 (Plasmodium falciparum [3]) of 13.6 µM.
In the case of COc1ccc2[nH]cc(-c3nccc4c3[nH]c3ccc(OC)cc34)c2c1, the IC50 (Plasmodium falciparum [4]) is reported as 4.7 µM.
In the case of COc1ccc(C2NCCc3c2[nH]c2ccccc32)cc1OC (stereo unspecified), the IC50 (Plasmodium falciparum [3]) is reported as greater than 81.1 µM.
Compound COC(=O)[C@@H]1Cc2c([nH]c3ccccc23)[C@@H](c2ccc3c(c2)OCO3)N1 has an IC50 (Plasmodium berghei) of less than 5 µg/mL.
With COC(=O)[C@@H]1Cc2c([nH]c3ccccc23)[C@H](c2cccs2)N1 the IC50 (Plasmodium berghei) was less than 5 µg/mL.
For CN(C)CCCNc1nccc2c1[nH]c1ccccc12, the IC50 (Plasmodium falciparum [1]) was 0.45 µM.
CCN(CC)C1CCN(c2nccc3c2[nH]c2ccccc23)CC1 was tested, and the IC50 (Plasmodium falciparum [1]) was 0.41 µM.
In the case of CCN(CC)CCCNc1nccc2c1[nH]c1ccccc12, the IC50 (Plasmodium falciparum [1]) is reported as 0.64 µM.
With c1ccc2c(c1)[nH]c1c(N3CCOCC3)nccc12 the IC50 (Plasmodium falciparum [1]) was 4.59 µM.
c1ccc2c(c1)[nH]c1c(N3CCC(N4CCCCCC4)CC3)nccc12 was tested, and the IC50 (Plasmodium falciparum [1]) was 0.35 µM.
c1ccc2c(c1)[nH]c1c(N3CCCCC3)nccc12 gave an IC50 (Plasmodium falciparum [1]) of 1.2 µM.
COC(=O)[C@@H]1Cc2c([nH]c3ccccc23)[C@H](c2cccnc2)N1 showed an IC50 (Plasmodium berghei) of less than 5 µg/mL.
c1ccc2c(c1)[nH]c1c(N3CCC(N4CCCC4)CC3)nccc12 was tested, and the IC50 (Plasmodium falciparum [1]) was 0.45 µM.
In the case of c1ccc2c(c1)[nH]c1c(N3CCC(N4CCCCC4)CC3)nccc12, the IC50 (Plasmodium falciparum [1]) is reported as 0.39 µM.
For CCCCCC[C@H]1N[C@H](C(=O)OC)Cc2c1[nH]c1ccccc21, the IC50 (Plasmodium berghei) was less than 5 µg/mL.
In the case of OC1CCCN(c2nccc3c2[nH]c2ccccc23)C1 (stereo unspecified), the IC50 (Plasmodium falciparum [1]) is reported as 3.4 µM.
CCCCCC[C@@H]1N[C@H](C(=O)OC)Cc2c1[nH]c1ccccc21 gave an IC50 (Plasmodium berghei) of less than 5 µg/mL.
Work on COC(=O)[C@@H]1Cc2c([nH]c3ccccc23)[C@@H](c2cccs2)N1 yielded an IC50 (Plasmodium berghei) of less than 5 µg/mL.
CN1CCN(c2nccc3c2[nH]c2ccccc23)CC1 gave an IC50 (Plasmodium falciparum [1]) of 0.62 µM.
Work on COC(=O)[C@@H]1Cc2c([nH]c3ccccc23)[C@@H](c2cccnc2)N1 yielded an IC50 (Plasmodium berghei) of less than 5 µg/mL.
For COC(=O)[C@@H]1Cc2c([nH]c3ccccc23)[C@H](c2ccc3c(c2)OCO3)N1, the IC50 (Plasmodium berghei) was less than 5 µg/mL.
CC1NCCc2c1[nH]c1ccc(Cl)cc21 (stereo unspecified) showed an IC50 (Plasmodium falciparum [3]) of 4.2 µM.
Work on Clc1ccc(C2NCCc3c2[nH]c2ccccc32)cc1 (stereo unspecified) yielded an IC50 (Plasmodium falciparum [3]) of 4.8 µM.
Work on COC(=O)c1cc2c3c(c1)c1ccccc1n3C=C(C)OC2 yielded an IC50 (Plasmodium falciparum [5]) greater than 5 µM.
Compound Cc1ccc(C)c(C2NCCc3c2[nH]c2ccccc32)c1 (stereo unspecified) has an IC50 (Plasmodium falciparum [2]) of 28.9 µM.
Compound C=C(C)CC1OC(C)=Cn2c3ccccc3c3cc(C(=O)OC)cc1c32 (stereo unspecified) has an IC50 (Plasmodium falciparum [5]) greater than 5 µM.
CC[C@H]1CN2CCc3c([nH]c4ccccc34)[C@@H]2C[C@@H]1C[C@H]1NCCc2c1[nH]c1ccccc21 showed an IC50 (Plasmodium falciparum [6]; [10]) of 0.118 µM and an IC50 (Plasmodium falciparum [7]; [11]) of 0.492 µM.
With CCN(CC)CCCNc1nccc2c1[nH]c1ccc(Cl)cc12 the IC50 (Plasmodium falciparum [1]) was 1.08 µM.
Compound COC(=O)c1cc2c3c(c1)c1ccccc1n3C=C(C)OC2CC=C(C)C (stereo unspecified) has an IC50 (Plasmodium falciparum [5]) greater than 5 µM and an IC50 (Plasmodium falciparum [8]) greater than 5 µM.
Compound CC1NCCc2c1[nH]c1ccc(Br)cc21 (stereo unspecified) has an IC50 (Plasmodium falciparum [3]) of 5.7 µM.
Compound Cc1ccc(C2NCCc3c2[nH]c2ccccc32)c(C)c1 (stereo unspecified) has an IC50 (Plasmodium falciparum [2]) of 25.3 µM.
For CCN(CC)CCCNc1nccc2c1[nH]c1ccc(F)cc12, the IC50 (Plasmodium falciparum [1]) was 0.36 µM.
Oc1ccc2[nH]cc(-c3nccc4c3[nH]c3ccc(O)cc34)c2c1 showed an IC50 (Plasmodium falciparum [4]) of 11 µM.
Compound C=C(CC1OC(C)=Cn2c3ccccc3c3cc(C(=O)OC)cc1c32)C(=O)OC (stereo unspecified) has an IC50 (Plasmodium falciparum [5]) of 0.57 µM and an IC50 (Plasmodium falciparum [8]) of 0.72 µM.
With C=C[C@H]1CN2CCc3c([nH]c4ccc(O)cc34)[C@@H]2C[C@@H]1CC1c2[nH]c3ccccc3c2CCN1C (stereo partly specified) the IC50 (Plasmodium falciparum [6]; [10]) was 0.48 µM and the IC50 (Plasmodium falciparum [7]; [11]) was 0.16 µM.
Compound COC(=O)c1cc2c3c(c1)c1cc(Cl)ccc1n3C=C(C)OC2 has an IC50 (Plasmodium falciparum [5]) greater than 1.78 µM and an IC50 (Plasmodium falciparum [8]) greater than 2.45 µM.
Compound Cc1ccc(C2NCCc3c2[nH]c2ccccc32)cc1 (stereo unspecified) has an IC50 (Plasmodium falciparum [2]) of 7.6 µM.
COC(=O)C1Cc2c([nH]c3ccccc23)C(c2c[nH]c3ccccc23)=N1 (stereo unspecified) gave an IC50 (Plasmodium falciparum [4]) greater than 29 µM.
COC(=O)c1cc2c3c(c1)c1cc(Br)ccc1n3C=C(C)OC2 was tested, and the IC50 (Plasmodium falciparum [5]) was greater than 5 µM.
With c1ccc2c(C3NCCc4c3[nH]c3ccccc43)c[nH]c2c1 (stereo unspecified) the IC50 (Plasmodium falciparum [4]) was 5.1 µM.
With O=C(O)c1cc2c([nH]c3ccccc32)c(-c2c[nH]c3ccccc23)n1 the IC50 (Plasmodium falciparum [4]) was greater than 3.1 µM.
Brc1ccc(C2NCCc3c2[nH]c2ccccc32)cc1 (stereo unspecified) was tested, and the IC50 (Plasmodium falciparum [3]) was 6.9 µM.
For COc1ccc2[nH]cc(C3NCCc4c3[nH]c3ccc(OC)cc43)c2c1 (stereo unspecified), the IC50 (Plasmodium falciparum [4]) was 8 µM.
In the case of C/C=C/CC1OC(C)=Cn2c3ccccc3c3cc(C(=O)OC)cc1c32 (stereo unspecified), the IC50 (Plasmodium falciparum [5]) is reported as greater than 5 µM.
Compound Clc1ccc2[nH]c3c(N4CCC(N5CCCC5)CC4)nccc3c2c1 has an IC50 (Plasmodium falciparum [1]) of 0.93 µM.
Work on C=C[C@H]1CN2CCc3c([nH]c4c([C@@H]5CCCN5C)c(O)ccc34)[C@@H]2C[C@@H]1CC1c2[nH]c3ccccc3c2CCN1C (stereo partly specified) yielded an IC50 (Plasmodium falciparum [6]; [10]) of 0.12 µM, an IC50 (Plasmodium falciparum [9]) of less than 0.5 µM and an IC50 (Plasmodium falciparum [7]; [11]) of 0.152 µM.
For Clc1ccc2[nH]c3c(N4CCC(N5CCCCC5)CC4)nccc3c2c1, the IC50 (Plasmodium falciparum [1]) was 10.2 µM.
C=C(C#N)C1OC(C)=Cn2c3ccccc3c3cc(C(=O)OC)cc1c32 (stereo unspecified) gave an IC50 (Plasmodium falciparum [5]) greater than 5 µM.
CN1CCc2c3n(c4ccccc24)C(O)C[C@H](C2=CCOC2=O)C[C@@H]31 (stereo partly specified) was tested, and the IC50 (Plasmodium falciparum [6]) was 25.9 µM and the IC50 (Plasmodium falciparum [6]; [10]) was 17 µM.
COC(=O)c1cc2c([nH]c3ccccc32)c(-c2c[nH]c3ccccc23)n1 was tested, and the IC50 (Plasmodium falciparum [4]) was greater than 29 µM.
With Cc1cccc(C2NCCc3c2[nH]c2ccccc32)c1 (stereo unspecified) the IC50 (Plasmodium falciparum [2]) was 38.1 µM.
CN(C)c1ccc(C2NCCc3c2[nH]c2ccccc32)cc1 (stereo unspecified) gave an IC50 (Plasmodium falciparum [3]) of 3.9 µM.
For COC(=O)c1cc2c3c(c1)c1ccccc1n3C=C(C)OC2C1C=CCCC1 (stereo unspecified), the IC50 (Plasmodium falciparum [5]) was 1.64 µM and the IC50 (Plasmodium falciparum [8]) was greater than 5 µM.
In the case of COc1cc(C2NCCc3c2[nH]c2ccccc32)c([N+](=O)[O-])cc1OC (stereo unspecified), the IC50 (Plasmodium falciparum [3]) is reported as 11.3 µM.
CCN(CC)CCC(C)Nc1nccc2c1[nH]c1ccc(Cl)cc12 (stereo unspecified) gave an IC50 (Plasmodium falciparum [1]) of 0.24 µM.
COc1ccc(OC)c(C2NCCc3c2[nH]c2ccccc32)c1 (stereo unspecified) gave an IC50 (Plasmodium falciparum [3]) of 29.2 µM.
In the case of COC(=O)c1cc2c3c(c1)c1cc(Cl)ccc1n3C=C(C)OC2C/C=C(\C)CCC=C(C)C (stereo unspecified), the IC50 (Plasmodium falciparum [5]) is reported as 1.55 µM and the IC50 (Plasmodium falciparum [8]) is reported as greater than 5 µM.
With O=[N+]([O-])c1ccccc1C1NCCc2c1[nH]c1ccccc21 (stereo unspecified) the IC50 (Plasmodium falciparum [3]) was 47.7 µM.
C=CCC1OC(C)=Cn2c3ccc(Cl)cc3c3cc(C(=O)OC)cc1c32 (stereo unspecified) was tested, and the IC50 (Plasmodium falciparum [5]) was greater than 5 µM and the IC50 (Plasmodium falciparum [8]) was greater than 5 µM.
With O=[N+]([O-])c1ccc(C2NCCc3c2[nH]c2ccccc32)cc1 (stereo unspecified) the IC50 (Plasmodium falciparum [3]) was 1.7 µM.
C=CCC1OC(C)=Cn2c3ccccc3c3cc(C(=O)OC)cc1c32 (stereo unspecified) showed an IC50 (Plasmodium falciparum [5]) greater than 5 µM and an IC50 (Plasmodium falciparum [8]) greater than 5 µM.
COC(=O)c1cc2c3c(c1)c1ccccc1n3C=C(C)OC2C1=CCCC=C1 (stereo unspecified) gave an IC50 (Plasmodium falciparum [5]) greater than 5 µM and an IC50 (Plasmodium falciparum [8]) greater than 5 µM.
Compound Cc1ccccc1C1NCCc2c1[nH]c1ccccc21 (stereo unspecified) has an IC50 (Plasmodium falciparum [2]) of 15.2 µM.
CCN(CC)CCC(C)Nc1nccc2c1[nH]c1ccc(F)cc12 (stereo unspecified) was tested, and the IC50 (Plasmodium falciparum [1]) was 1.2 µM.
COC(=O)C1Cc2c([nH]c3ccccc23)C(c2c[nH]c3ccccc23)N1 (stereo unspecified) showed an IC50 (Plasmodium falciparum [4]) of 13.6 µM.
With CCN(CC)CCC(C)Nc1nccc2c1[nH]c1ccccc12 (stereo unspecified) the IC50 (Plasmodium falciparum [1]) was 0.42 µM.
Work on FC(F)(F)c1ccc(C2NCCc3c2[nH]c2ccccc32)cc1 (stereo unspecified) yielded an IC50 (Plasmodium falciparum [3]) of 12.6 µM.
CCN(CC)C1CCN(c2nccc3c2[nH]c2ccc(Cl)cc23)CC1 showed an IC50 (Plasmodium falciparum [1]) of 1.6 µM.
Fc1ccc(C2NCCc3c2[nH]c2ccccc32)cc1 (stereo unspecified) showed an IC50 (Plasmodium falciparum [3]) of 1.1 µM.
Compound N#Cc1ccc(C2NCCc3c2[nH]c2ccccc32)cc1 (stereo unspecified) has an IC50 (Plasmodium falciparum [3]) of 1.1 µM.
In the case of CC1C2=CN3CCc4c([nH]c5ccc(O)cc45)C3CC2CC2C3C(CCN2C)c2ccccc2N13 (stereo in doubt; 33), the IC50 (Plasmodium falciparum [6]) is reported as 9.55 µM and the IC50 (Plasmodium falciparum [7]) is reported as 12.7 µM.
In the case of CC1NCCc2c1[nH]c1ccccc21 (stereo unspecified) [TETRAHYDROHARMAN], the IC50 (Plasmodium falciparum [2]) is reported as 1.4 µM.
